Results published in US6887847B2, “Virus derived antimicrobial peptides” (University of Pittsburgh, priority 2001, dated 2005).
Values after ≈ are worked out from the molar mass of the structure shown. Residues, ends and D or L forms follow the SMILES beside them. No end group written: not given here.

Experiments:
[1] = system: Staphylococcus aureus; assay: Bacterial lysis (broth dilution) assay, MBC; assay type: cell-based
Text: (§1) The assays for growth inhibition of a microbial target can be used to derive a minimum bactericidal concentration (MBC) value for the peptide, i.e., the concentration of peptide required to kill 99.9% of the microbial sample being tested. This value is well known to those in the art as representative of the effectiveness of a particular antimicrobial agent (e.g., an antibiotic) against a particular organism or group of organisms. In assays to detect the MBC of a peptide, growth inhibition of a bacterial population also can be measured with reference to the number of colony forming units (cfu) after exposure to a peptide relative to a control experiment without a peptide.
(§2) Bacterial lysis assay. Bacterial lysis assays were conducted in a manner similar to that described previously (Lehrer, R. I., M. E. Selsted, D. Szklarek, and F. J. 1983. Infect. Immun. 42: 10-4, 1983; Miller, M. A., R. F. Garry, J. M. Jaynes, and R. C. Montelaro, AIDS Res Hum Retroviruses 7: 511-519, 1991). Bacterial suspensions were cultured in Luria-Bertani Broth to mid-log growth phase and washed by two cycles of centrifugation and suspension in 10 mM phosphate buffer. The Abs600 of the suspension was adjusted with 10 mM phosphate buffer such that, upon dilution, 5-10×10^5 cfu/mL would be treated in the assay. Bacteria were incubated for 1 h with two-fold dilutions of peptides (100 μM to 100 nM) in 96-well plates using 10 mM phosphate buffer, pH 7.2, as a diluent. Ten-fold dilutions of bacteria were performed to 1:1000; a 100 μl aliquot from each condition was spread on the surface of tryptic soy agar plates (Difco, Detroit, Mich.) which were incubated overnight. Colonies of surviving bacteria (cfu, colony-forming units) were counted and compared to untreated controls to determine the amount of peptide-induced killing under each condition. Log killing is defined as the log of the ratio of cfu present before and after treatment with peptide. The minimal bactericidal concentration, MBC, is the peptide concentration at which 99.9% (three log) killing is achieved (Pearson et al., Antimicrob. Agents Chemother. 18: 699-708, 1980).
(§3) A limitation of many host-derived antimicrobial peptides is their decreased activity at physiologic (150 mM) NaCl concentration. See Friedrich et al., Antimicrobial Agents and Chemotherapy 43:1542-1548. The peptides WLSA-5 (SEQ ID NO:3) and LL37 were tested against the two index strains at physiologic NaCl. […] The activity of eLLPs and LBUs of this invention were compared to an expanded list of clinical bacterial isolates. These are summarized in Table 2 by comparing their MBCs in phosphate buffer alone (low salt) and phosphate buffer containing 150 mM NaCl (physiologic conditions). Inspection of this table would lead one skilled in the art to conclude that the activity of eLLPs and LBUs compare favorably to the host derived antimicrobial peptides as it relates to the spectrum and potency of antimicrobial activity.

[2] = system: Pseudomonas aeruginosa; assay type: cell-based
Text: as §1, §2, §3

[3] = 0 mM NaCl (phosphate buffer, low salt)

Row | Compound | MBC [1, 3] | MBC ([1]; 150 mM NaCl (physiologic)) | P. aeruginosa killing, influence of NaCl ([2]; low salt vs physiologic (150 mM) NaCl) | MBC ([2]; 150 mM NaCl (physiologic))
1 | RVVRVVRRVVRRVRRVVRRVVRVVRRVVRRVRRVVRRVVRVVRRVVRR [LBU-4] | 800 nM | 800 nM |  | 
2 | LL37: human cathelicidin, processed form a 37-amino acid amphiphilic α-helical cationic host derived antimicrobial peptide (LLGDFFRKSKEKIGKEFKRIVQRIKDFLRNLVPRTES; Antibacterial peptide LL-37; UniProt P49913 134-170, looked up) [reference compound] |  |  | not affected by NaCl inclusion | 
3 | CC(C)[C@H](NC(=O)[C@H](Cc1c[nH]c2ccccc12)NC(=O)[C@H](CCCNC(=N)N)NC(=O)[C@H](CCCNC(=N)N)NC(=O)[C@@H](NC(=O)[C@@H](NC(=O)[C@H](CCCNC(=N)N)NC(=O)[C@@H](NC(=O)[C@@H](NC(=O)[C@@H](N)CCCNC(=N)N)C(C)C)C(C)C)C(C)C)C(C)C)C(=O)N[C@@H](CCCNC(=N)N)C(=O)N[C@@H](CCCNC(=N)N)C(=O)O [WLBU-1] (H-RVVRVVRRWVRR-OH; N-terminus and C-terminus assumed) | 30,000 nanomolar | 10,000 nanomolar |  | 
4 | CC(C)[C@H](N)C(=O)N[C@@H](CCCNC(=N)N)C(=O)N[C@@H](CCCNC(=N)N)C(=O)N[C@H](C(=O)N[C@H](C(=O)N[C@@H](CCCNC(=N)N)C(=O)N[C@@H](CCCNC(=N)N)C(=O)N[C@H](C(=O)N[C@H](C(=O)N[C@@H](CCCNC(=N)N)C(=O)N[C@H](C(=O)N[C@H](C(=O)N[C@@H](CCCNC(=N)N)C(=O)N[C@@H](CCCNC(=N)N)C(=O)N[C@H](C(=O)N[C@H](C(=O)N[C@@H](CCCNC(=N)N)C(=O)N[C@@H](CCCNC(=N)N)C(=O)N[C@H](C(=O)N[C@@H](CCCNC(=N)N)C(=O)N[C@@H](CCCNC(=N)N)C(=O)N[C@H](C(=O)N[C@H](C(=O)N[C@@H](CCCNC(=N)N)C(=O)N[C@@H](CCCNC(=N)N)C(=O)N[C@H](C(=O)N[C@H](C(=O)N[C@@H](CCCNC(=N)N)C(=O)N[C@H](C(=O)N[C@H](C(=O)N[C@@H](CCCNC(=N)N)C(=O)N[C@@H](CCCNC(=N)N)C(=O)N[C@H](C(=O)N[C@H](C(=O)N[C@@H](CCCNC(=N)N)C(=O)N[C@@H](CCCNC(=N)N)C(=O)O)C(C)C)C(C)C)C(C)C)C(C)C)C(C)C)C(C)C)C(C)C)C(C)C)C(C)C)C(C)C)C(C)C)C(C)C)C(C)C)C(C)C)C(C)C)C(C)C)C(C)C [LBU-3] (H-VRRVVRRVVRVVRRVVRRVRRVVRRVVRVVRRVVRR-OH; N-terminus and C-terminus assumed) | 1500 nM | 1500 nM (≈ 6.92 µg/mL) |  | 
5 | RRVVRRVRRVVRRVVRVVRRVVRRVRRVVRRVVRVVRRVVRR [LBU-3.5] |  |  |  | 0.4 µM
6 | CC(C)[C@H](NC(=O)[C@H](CCCNC(=N)N)NC(=O)[C@H](CCCNC(=N)N)NC(=O)[C@@H](NC(=O)[C@@H](NC(=O)[C@H](CCCNC(=N)N)NC(=O)[C@@H](N)CCCNC(=N)N)C(C)C)C(C)C)C(=O)N[C@@H](CCCNC(=N)N)C(=O)N[C@@H](CCCNC(=N)N)C(=O)N[C@H](C(=O)N[C@H](C(=O)N[C@@H](CCCNC(=N)N)C(=O)N[C@@H](CCCNC(=N)N)C(=O)N[C@H](C(=O)N[C@H](C(=O)N[C@@H](CCCNC(=N)N)C(=O)N[C@H](C(=O)N[C@H](C(=O)N[C@@H](CCCNC(=N)N)C(=O)N[C@@H](CCCNC(=N)N)C(=O)N[C@H](C(=O)N[C@H](C(=O)N[C@@H](CCCNC(=N)N)C(=O)N[C@@H](CCCNC(=N)N)C(=O)O)C(C)C)C(C)C)C(C)C)C(C)C)C(C)C)C(C)C)C(C)C)C(C)C [LBU-2] (H-RRVVRRVRRVVRRVVRVVRRVVRR-OH) | 1500 nM |  |  | 
